From patent US8808716B2, “Topical foam composition” (Stiefel Research Australia Pty Ltd, priority 2009, dated 2014) come the findings set out here.

The data set can be described thus: accelerated stability study (HPLC) of compatibility of tazarotene with surfactants. The class given is physicochemical. The following applies: 50° C.; in hydrophilic ethoxylated fatty alcohol ether surfactant such as Ceteareth-12, in contrast to various lipophilic surfactants. As for the experimental part: An accelerated stability study (using HPLC) was conducted at 50° C. to measure the compatibility of tazarotene with various surfactants.

`CCOC(=O)c1ccc(C#Cc2ccc3c(c2)C(C)(C)CCS3)nc1` [tazarotene]: the “tazarotene stability (compatibility with surfactant)” value was “most stable”.
